# Results from ChEMBL document CHEMBL1201862, “PubChem BioAssay data set” (2004).
#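 Cultured in 96-well plates, cells were exposed to test compound for 48 hours across five concentrations. GI50 is the concentration that inhibits growth by half.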 The source made the active and inactive calls. Cut-off read from the data, not from the text of the source: active = GI50 up to about 1.1 µM and inactive = higher.
# Columns and labels:
# Test in all cases: NCI-60 cell line screen, 48 h
# NCI-H460 = system: NCI-H460
# K562 = system: K562
# SK-OV-3 = system: SK-OV-3
# HOP-62 = system: HOP-62
# IGROV-1 = system: IGROV-1
# KM12 = system: KM12
# SF-295 = system: SF-295
# COLO 205 = system: COLO 205
# RPMI-8226 = system: RPMI-8226
# SF-539 = system: SF-539
# 786-0 = system: 786-0
# SNB-78 = system: SNB-78
# RXF 393 = system: RXF 393
# NCI-H522 = system: NCI-H522
# SNB-75 = system: SNB-75
# SK-MEL-28 = system: SK-MEL-28
# TK-10 = system: TK-10
# A549 = system: A549
# UO-31 = system: UO-31
# U-251 = system: U-251
# SK-MEL-2 = system: SK-MEL-2
# NCI-H23 = system: NCI-H23
# SN12C = system: SN12C
# LXFL 529 = system: LXFL 529
# EKVX = system: EKVX
# M14 = system: M14
# NCI-H226 = system: NCI-H226
# RXF 631 = system: RXF 631
# UACC-62 = system: UACC-62
# LOX IMVI = system: LOX IMVI
# HCT-15 = system: HCT-15
# HOP-18 = system: HOP-18
# A498 = system: A498
# SNB-19 = system: SNB-19
# M19-MEL = system: M19-MEL
# OVCAR-3 = system: OVCAR-3
# HCC 2998 = system: HCC 2998
# ACHN = system: ACHN
# SF-268 = system: SF-268
# HL-60 = system: HL-60
# CCRF-CEM = system: CCRF-CEM
# KM-20L2 = system: KM-20L2
# SK-MEL-5 = system: SK-MEL-5
# SW-620 = system: SW-620
# UACC-257 = system: UACC-257
# DMS-114 = system: DMS-114
# Malme-3M = system: Malme-3M
# MOLT-4 = system: MOLT-4
# OVCAR-5 = system: OVCAR-5
# OVCAR-8 = system: OVCAR-8
# HOP-92 = system: HOP-92
# XF498 = system: XF498
# SR = system: SR
# HT-29 = system: HT-29
# DMS-273 = system: DMS-273
# OVCAR-4 = system: OVCAR-4
# HCT-116 = system: HCT-116
# DLD-1 = system: DLD-1
# CAKI-1 = system: CAKI-1
smiles,measurement,setting,value
c1ccc(OCCSCCCCCCCCCCSCCOc2ccccc2)cc1,GI50,NCI-H460,37.8 µM (inactive)
same,GI50,K562,> 100 µM (inactive)
same,GI50,SK-OV-3,> 100 µM (inactive)
same,GI50,HOP-62,24.7 µM (inactive)
same,GI50,IGROV-1,> 100 µM (inactive)
same,GI50,KM12,> 100 µM (inactive)
same,GI50,SF-295,30.7 µM (inactive)
same,GI50,COLO 205,> 100 µM (inactive)
same,GI50,RPMI-8226,> 100 µM (inactive)
same,GI50,SF-539,> 100 µM (inactive)
same,GI50,786-0,50.4 µM (inactive)
same,GI50,SNB-78,> 100 µM (inactive)
same,GI50,RXF 393,> 100 µM (inactive)
same,GI50,NCI-H522,> 100 µM (inactive)
same,GI50,SNB-75,> 100 µM (inactive)
same,GI50,SK-MEL-28,> 100 µM (inactive)
same,GI50,TK-10,16.9 µM (inactive)
same,GI50,A549,31.6 µM (inactive)
same,GI50,UO-31,65.3 µM (inactive)
same,GI50,U-251,74.3 µM (inactive)
same,GI50,SK-MEL-2,> 100 µM (inactive)
same,GI50,NCI-H23,> 100 µM (inactive)
same,GI50,SN12C,> 100 µM (inactive)
same,GI50,LXFL 529,> 100 µM (inactive)
same,GI50,EKVX,16.9 µM (inactive)
same,GI50,M14,> 100 µM (inactive)
same,GI50,NCI-H226,> 100 µM (inactive)
same,GI50,RXF 631,> 100 µM (inactive)
same,GI50,UACC-62,> 100 µM (inactive)
same,GI50,LOX IMVI,> 100 µM (inactive)
same,GI50,HCT-15,> 100 µM
same,GI50,HOP-18,> 100 µM (inactive)
same,GI50,A498,27.5 µM (inactive)
same,GI50,SNB-19,> 100 µM (inactive)
same,GI50,M19-MEL,> 100 µM (inactive)
same,GI50,OVCAR-3,> 100 µM (inactive)
same,GI50,HCC 2998,> 100 µM (inactive)
same,GI50,ACHN,48.1 µM (inactive)
same,GI50,SF-268,> 100 µM (inactive)
same,GI50,HL-60,> 100 µM (inactive)
same,GI50,CCRF-CEM,> 100 µM (inactive)
same,GI50,KM-20L2,> 100 µM (inactive)
same,GI50,SK-MEL-5,28.9 µM (inactive)
same,GI50,SW-620,54.2 µM (inactive)
same,GI50,UACC-257,> 100 µM (inactive)
same,GI50,DMS-114,> 100 µM (inactive)
same,GI50,Malme-3M,14.7 µM (inactive)
same,GI50,MOLT-4,> 100 µM (inactive)
same,GI50,OVCAR-5,> 100 µM (inactive)
same,GI50,OVCAR-8,61.2 µM (inactive)
CC1=C(CC2C(=O)N(c3ccccc3)S(=O)(=O)NC2C)C(=O)N(c2ccccc2)S(=O)(=O)N1C (centres undefined),GI50,NCI-H460,> 100 µM (inactive)
same,GI50,HOP-92,> 100 µM (inactive)
same,GI50,K562,> 100 µM (inactive)
same,GI50,SK-OV-3,> 100 µM (inactive)
same,GI50,HOP-62,> 100 µM (inactive)
same,GI50,IGROV-1,> 100 µM (inactive)
same,GI50,KM12,> 100 µM (inactive)
same,GI50,SF-295,> 100 µM (inactive)
same,GI50,COLO 205,> 100 µM (inactive)
same,GI50,RPMI-8226,> 100 µM (inactive)
same,GI50,SF-539,> 100 µM (inactive)
same,GI50,786-0,> 100 µM (inactive)
same,GI50,SNB-78,> 100 µM (inactive)
same,GI50,XF498,> 100 µM (inactive)
same,GI50,NCI-H522,> 100 µM (inactive)
same,GI50,SNB-75,> 100 µM (inactive)
same,GI50,SK-MEL-28,> 100 µM (inactive)
same,GI50,TK-10,> 100 µM (inactive)
same,GI50,A549,> 100 µM (inactive)
same,GI50,UO-31,> 100 µM (inactive)
same,GI50,U-251,> 10 µM (inactive)
same,GI50,SR,> 100 µM (inactive)
same,GI50,SK-MEL-2,> 100 µM (inactive)
same,GI50,NCI-H23,> 100 µM (inactive)
same,GI50,HT-29,> 100 µM (inactive)
same,GI50,SN12C,> 100 µM (inactive)
same,GI50,LXFL 529,> 100 µM (inactive)
same,GI50,EKVX,> 100 µM (inactive)
same,GI50,M14,> 100 µM (inactive)
same,GI50,DMS-273,> 100 µM (inactive)
same,GI50,NCI-H226,> 100 µM (inactive)
same,GI50,OVCAR-4,> 100 µM (inactive)
same,GI50,RXF 631,> 100 µM (inactive)
same,GI50,UACC-62,> 100 µM (inactive)
same,GI50,LOX IMVI,> 100 µM (inactive)
same,GI50,HCT-15,> 100 µM
same,GI50,SNB-19,> 100 µM (inactive)
same,GI50,M19-MEL,> 100 µM (inactive)
same,GI50,HCT-116,> 100 µM (inactive)
same,GI50,DLD-1,> 100 µM (inactive)
same,GI50,OVCAR-3,> 100 µM (inactive)
same,GI50,HCC 2998,> 100 µM (inactive)
same,GI50,ACHN,> 100 µM (inactive)
same,GI50,SF-268,> 100 µM (inactive)
same,GI50,CCRF-CEM,> 100 µM (inactive)
same,GI50,KM-20L2,> 100 µM (inactive)
same,GI50,SK-MEL-5,> 100 µM (inactive)
same,GI50,CAKI-1,> 100 µM (inactive)
same,GI50,SW-620,> 100 µM (inactive)
same,GI50,DMS-114,> 100 µM (inactive)
same,GI50,Malme-3M,> 100 µM (inactive)
same,GI50,MOLT-4,> 100 µM (inactive)
same,GI50,OVCAR-5,> 100 µM (inactive)
same,GI50,OVCAR-8,> 100 µM (inactive)
